Source: patent US20250230159A1, “FUSED HETEROCYCLIC COMPOUNDS AS MODULATORS OF RAS SIGNALLING” (Shenzhen Ionova Life Science Co., Ltd., priority 2022, published 2025)

Columns and labels:
[1] = biological target: KRAS-G12C/SOS1 interaction (Homo sapiens (Human), UniProt Q07889); experiment: Protein-Protein Interaction (PPI) assay, SOS1-KRAS binding assay kit (HTRF); details: read-out: PPI Assay IC50
pERK in Hela cells = experiment: Phospho-ERK (p-ERK) assay in Hela cells; format: cell-based; details: Homo sapiens, Table 1, 1 hour with compound, β-actin normalized
In short: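 Cells were treated for 1 h at 37 °C with compound in a 9-point, 3-fold series from 10 μM, then fixed and stained for pERK and β-actin. An In-Cell Western read-out normalized pERK to β-actin and to vehicle wells to give % inhibition and IC50.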

Sequence of KRAS-G12C/SOS1 interaction (Q07889 whole entry, stated change not applied): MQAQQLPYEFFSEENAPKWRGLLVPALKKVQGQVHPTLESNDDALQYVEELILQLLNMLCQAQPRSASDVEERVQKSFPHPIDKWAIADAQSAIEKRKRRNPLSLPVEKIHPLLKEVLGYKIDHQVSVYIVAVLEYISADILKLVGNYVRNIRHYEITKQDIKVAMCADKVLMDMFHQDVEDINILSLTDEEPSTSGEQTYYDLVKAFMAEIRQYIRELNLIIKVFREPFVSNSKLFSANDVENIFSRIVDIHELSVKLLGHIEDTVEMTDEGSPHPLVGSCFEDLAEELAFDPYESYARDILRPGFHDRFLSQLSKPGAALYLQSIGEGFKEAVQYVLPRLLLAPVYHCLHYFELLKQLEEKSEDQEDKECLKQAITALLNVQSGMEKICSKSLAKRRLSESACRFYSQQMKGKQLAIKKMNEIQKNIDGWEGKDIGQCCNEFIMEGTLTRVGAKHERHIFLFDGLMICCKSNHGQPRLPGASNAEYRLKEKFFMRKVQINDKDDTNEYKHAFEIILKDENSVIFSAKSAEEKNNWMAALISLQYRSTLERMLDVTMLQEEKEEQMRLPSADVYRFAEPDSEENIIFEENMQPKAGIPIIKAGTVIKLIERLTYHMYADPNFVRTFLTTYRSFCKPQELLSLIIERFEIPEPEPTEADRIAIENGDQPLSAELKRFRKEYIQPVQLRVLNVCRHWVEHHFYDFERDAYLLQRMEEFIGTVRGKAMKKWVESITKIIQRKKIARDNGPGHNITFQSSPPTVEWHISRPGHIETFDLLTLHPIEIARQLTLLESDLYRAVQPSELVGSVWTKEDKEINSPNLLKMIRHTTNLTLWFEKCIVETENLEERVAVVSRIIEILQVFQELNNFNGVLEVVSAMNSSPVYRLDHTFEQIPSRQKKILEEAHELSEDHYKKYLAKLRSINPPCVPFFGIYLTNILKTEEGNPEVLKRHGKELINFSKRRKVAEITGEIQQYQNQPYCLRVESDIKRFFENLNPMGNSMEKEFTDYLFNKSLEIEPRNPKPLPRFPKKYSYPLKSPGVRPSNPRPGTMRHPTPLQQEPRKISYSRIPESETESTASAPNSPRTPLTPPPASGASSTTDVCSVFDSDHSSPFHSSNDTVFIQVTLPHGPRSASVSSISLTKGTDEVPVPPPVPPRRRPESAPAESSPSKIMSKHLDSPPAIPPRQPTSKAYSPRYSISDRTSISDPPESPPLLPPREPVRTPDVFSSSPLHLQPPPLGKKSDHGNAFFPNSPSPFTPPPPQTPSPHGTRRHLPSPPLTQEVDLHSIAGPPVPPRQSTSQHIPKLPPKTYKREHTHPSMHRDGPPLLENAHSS

SMILES	IC50 [1] [nM]	IC50 (pERK in Hela cells) [nM]
CC(=O)N1CC=C(c2cc3c(N[C@H](C)c4cccc(C(F)F)c4F)nc(C)nc3n3cnnc23)CC1 [Example 100, (R)-1-(4-(4-((1-(3-(difluoromethyl)-2-fluorophenyl)ethyl)amino)-2-methyl-[1,2,4]triazolo[4′,3′:1,6]pyrido[2,3-d]pyrimidin-6-yl)-3,6-dihydropyridin-1(2H)-yl)ethan-1-one]	< 100	> 100
Cc1nc(N[C@H](C)c2cc(N)cc(C(F)(F)F)c2)c2cc(C(=O)N3CCN(CCO)CC3)c3ncnn3c2n1 [Example 5]	< 100	> 100
C[C@@H](Nc1ncnc2c1cc(C1(C)CCOCC1)c1nncn12)c1cc(N)cc(C(F)(F)F)c1 [Example 130]	< 100	> 100
CC(=O)N1CCC(F)(c2cc3c(N[C@H](C)c4cccc(C(F)F)c4F)ncnc3n3nnnc23)CC1 [Example 117]	< 100	< 100
